Measured values from US20140120232A1, “ACID TASTE/ACID SMELL-REDUCING AGENT” (T. HASEGAWA CO., LTD., priority 2011, published 2014).

Test: Sensory evaluation of Vermont drink containing the agent
Details: ten panels
Protocol: Water was added to a mixture of 10 g of apple-cider vinegar (acetic acid: 4.8%), 3 g of honey, 7 g of fructose-glucose liquid sugar mixed with sugar, 0.02 g of citric acid, 0.002 g of trisodium citrate, and 0.1 g of a Vermont flavor (manufactured by T. Hasegawa Co., Ltd.) to give a total amount of 100 mL. To the resulting mixture was added (Z,Z)-4,7-tridecadienal as the acid taste and/or acid smell-reducing agent of the present invention in concentrations shown in the following Table 1 to give Vermont drinks containing the agent.
Sensory evaluation of each drink was carried out by ten panels. […] The piercing aroma characteristic to aldehydes is a characteristic aroma common to every aldehyde and refers to an irritant off-smell giving an image of deteriorated oils and fats, soap, metals, Houttuynia cordata, etc. The judgment of smell was performed by comparing the effects at different concentrations of the acid taste and/or acid smell-reducing agent, and a concentration giving the highest acid taste/acid smell quality was selected. […]

CCCCC/C=C\C/C=C/CCC=O [(E,Z)-4,7-tridecadienal]
3: B: number of panels, acid taste/acid smell slightly strong and slightly cause irritation (0.5 ppt) | C: number of panels, acid taste/acid smell slightly unpleasant (5 ppt) | Flavor judgment: number of panels who judged acid taste/acid smell quality the highest (20 ppt) | Flavor judgment: number of panels who judged acid taste/acid smell quality the highest (100 ppt) | C: number of panels, acid taste/acid smell slightly unpleasant (500 ppt)
7: N: number of panels, irritation of acid reduced to give a mild acid taste (100 ppt)
8: A: number of panels, acid taste/acid smell extreme and cause irritation (0.2 ppt) | N: number of panels, irritation of acid reduced to give a mild acid taste (20 ppt) | X: number of panels, acid taste reduced but piercing odor characteristic to aldehydes unpleasant (50 ppb)
6: A: number of panels, acid taste/acid smell extreme and cause irritation (0.5 ppt) | N: number of panels, irritation of acid reduced to give a mild acid taste (5 ppt)
0: B: number of panels, acid taste/acid smell slightly strong and slightly cause irritation (0.005 ppt) | C: number of panels, acid taste/acid smell slightly unpleasant (0.005 ppt) | Flavor judgment: number of panels who judged acid taste/acid smell quality the highest (0.005 ppt) | N: number of panels, irritation of acid reduced to give a mild acid taste (0.005 ppt) | X: number of panels, acid taste reduced but piercing odor characteristic to aldehydes unpleasant (0.005 ppt) | B: number of panels, acid taste/acid smell slightly strong and slightly cause irritation (0.02 ppt) | C: number of panels, acid taste/acid smell slightly unpleasant (0.02 ppt) | Flavor judgment: number of panels who judged acid taste/acid smell quality the highest (0.02 ppt) | N: number of panels, irritation of acid reduced to give a mild acid taste (0.02 ppt) | X: number of panels, acid taste reduced but piercing odor characteristic to aldehydes unpleasant (0.02 ppt) | B: number of panels, acid taste/acid smell slightly strong and slightly cause irritation (0.1 ppt) | C: number of panels, acid taste/acid smell slightly unpleasant (0.1 ppt) | Flavor judgment: number of panels who judged acid taste/acid smell quality the highest (0.1 ppt) | N: number of panels, irritation of acid reduced to give a mild acid taste (0.1 ppt) | X: number of panels, acid taste reduced but piercing odor characteristic to aldehydes unpleasant (0.1 ppt) | C: number of panels, acid taste/acid smell slightly unpleasant (0.2 ppt) | Flavor judgment: number of panels who judged acid taste/acid smell quality the highest (0.2 ppt) | N: number of panels, irritation of acid reduced to give a mild acid taste (0.2 ppt) | X: number of panels, acid taste reduced but piercing odor characteristic to aldehydes unpleasant (0.2 ppt) | Flavor judgment: number of panels who judged acid taste/acid smell quality the highest (0.5 ppt) | N: number of panels, irritation of acid reduced to give a mild acid taste (0.5 ppt) | X: number of panels, acid taste reduced but piercing odor characteristic to aldehydes unpleasant (0.5 ppt) | A: number of panels, acid taste/acid smell extreme and cause irritation (1 ppb) | B: number of panels, acid taste/acid smell slightly strong and slightly cause irritation (1 ppb) | Flavor judgment: number of panels who judged acid taste/acid smell quality the highest (1 ppb) | A: number of panels, acid taste/acid smell extreme and cause irritation (1 ppt) | Flavor judgment: number of panels who judged acid taste/acid smell quality the highest (1 ppt) | X: number of panels, acid taste reduced but piercing odor characteristic to aldehydes unpleasant (1 ppt) | A: number of panels, acid taste/acid smell extreme and cause irritation (5 ppt) | X: number of panels, acid taste reduced but piercing odor characteristic to aldehydes unpleasant (5 ppt) | A: number of panels, acid taste/acid smell extreme and cause irritation (10 ppb) | B: number of panels, acid taste/acid smell slightly strong and slightly cause irritation (10 ppb) | Flavor judgment: number of panels who judged acid taste/acid smell quality the highest (10 ppb) | A: number of panels, acid taste/acid smell extreme and cause irritation (20 ppt) | B: number of panels, acid taste/acid smell slightly strong and slightly cause irritation (20 ppt) | X: number of panels, acid taste reduced but piercing odor characteristic to aldehydes unpleasant (20 ppt) | A: number of panels, acid taste/acid smell extreme and cause irritation (50 ppb) | B: number of panels, acid taste/acid smell slightly strong and slightly cause irritation (50 ppb) | C: number of panels, acid taste/acid smell slightly unpleasant (50 ppb) | Flavor judgment: number of panels who judged acid taste/acid smell quality the highest (50 ppb) | A: number of panels, acid taste/acid smell extreme and cause irritation (100 ppt) | X: number of panels, acid taste reduced but piercing odor characteristic to aldehydes unpleasant (100 ppt) | A: number of panels, acid taste/acid smell extreme and cause irritation (500 ppt) | Flavor judgment: number of panels who judged acid taste/acid smell quality the highest (500 ppt)
1: C: number of panels, acid taste/acid smell slightly unpleasant (0.5 ppt) | N: number of panels, irritation of acid reduced to give a mild acid taste (1 ppt) | B: number of panels, acid taste/acid smell slightly strong and slightly cause irritation (5 ppt) | B: number of panels, acid taste/acid smell slightly strong and slightly cause irritation (100 ppt) | B: number of panels, acid taste/acid smell slightly strong and slightly cause irritation (500 ppt)
4: N: number of panels, irritation of acid reduced to give a mild acid taste (1 ppb) | X: number of panels, acid taste reduced but piercing odor characteristic to aldehydes unpleasant (1 ppb) | B: number of panels, acid taste/acid smell slightly strong and slightly cause irritation (1 ppt) | Flavor judgment: number of panels who judged acid taste/acid smell quality the highest (5 ppt) | N: number of panels, irritation of acid reduced to give a mild acid taste (10 ppb) | X: number of panels, acid taste reduced but piercing odor characteristic to aldehydes unpleasant (10 ppb) | N: number of panels, irritation of acid reduced to give a mild acid taste (500 ppt)
2: B: number of panels, acid taste/acid smell slightly strong and slightly cause irritation (0.2 ppt) | C: number of panels, acid taste/acid smell slightly unpleasant (1 ppb) | C: number of panels, acid taste/acid smell slightly unpleasant (10 ppb) | C: number of panels, acid taste/acid smell slightly unpleasant (20 ppt) | N: number of panels, irritation of acid reduced to give a mild acid taste (50 ppb) | C: number of panels, acid taste/acid smell slightly unpleasant (100 ppt) | X: number of panels, acid taste reduced but piercing odor characteristic to aldehydes unpleasant (500 ppt)
5: C: number of panels, acid taste/acid smell slightly unpleasant (1 ppt)
10: A: number of panels, acid taste/acid smell extreme and cause irritation (0.005 ppt) | A: number of panels, acid taste/acid smell extreme and cause irritation (0.02 ppt) | A: number of panels, acid taste/acid smell extreme and cause irritation (0.1 ppt)
